Data: patent US20230355646A1, “AUTOPHAGY ACTIVATOR” (Resonac Corporation, priority 2020, published 2023)

System: ATG5 gene
Assay: ATG5 gene expression promoting effect in human neuroblastoma SH-SY5Y in the presence of amyloid β
Assay type: cell-based
Protocol: In the presence of an autophagy activator, the expression levels of the LC3 gene, ATG5 gene, and ATG7 gene in human neuroblastoma (SH-SY5Y; obtained from ATCC) were measured by the following test method, and the effect of promoting the expression of the LC3 gene, ATG5 gene, and ATG7 gene by an autophagy activator was evaluated.
In the following examples and comparative examples, tests were performed by adding amyloid β, which is known to cause a decrease in autophagy in nerve cells, to each medium.
SH-SY5Y cells were prepared at a seeding density of 10000 cells/cm^2 and cultured for 24 hours in D-MEM medium/Ham's F-12 medium (manufactured by Sigma-Aldrich) to which 10% fetal bovine serum (manufactured by MP Biomedicals) was added. Next, in Example 15, the methyl hesperidin DMSO solution was added to the medium such that the final concentration of methyl hesperidin was 10^−3% (V/V) and the final concentration of DMSO was 0.1% (V/V). […]
Then, using Nucleospin (registered trademark) RNA kit (manufactured by Takara Bio Inc.), RNA was extracted from SH-SY5Y cells in each example, and cDNA was synthesized from the obtained RNA. Next, using this cDNA as a template, by quantitative real-time PCR, the expression level of each gene was quantified using primers (manufactured by Takara Bio Inc.) specific to the LC3 gene, ATG5 gene, and ATG7 gene, respectively. […]

COc1ccc([C@@H]2CC(=O)c3c(O)cc(O[C@@H]4O[C@H](CO[C@@H]5O[C@@H](C)[C@H](O)[C@@H](O)[C@H]5O)[C@@H](O)[C@H](O)[C@H]4O)cc3O2)cc1O [Comparative Example 2, hesperidin]
expression level of the ATG5 gene (in words) (SH-SY5Y cells with amyloid β, compared to DMSO and amyloid β of Comparative Example 5): increased | Relative gene expression level ATG5 (SH-SY5Y cells, 20 μM amyloid β present, 10^−2% (V/V) methyl hesperidin or hesperidin, additional ingredient where in the example, 48 hours, Reference Example 3 = 1.00): 3.29
